What was measured:
mixed neuronal culture = assay: Neuronal LDH release from a mixed neuronal culture following incubation with NMDA; assay type: cell-based; conditions: peptide at 1 μM; mixed neuronal culture incubated with NMDA
From the text: (§1) Despite the neuroprotective effectiveness of early generation apoE-mimetic peptides based on the primary structure of the apoE receptor-binding region, several factors have limited clinical translation. Among those factors are peptide size and production cost. In order to address these barriers, we developed a library of smaller, 5-amino acid peptides by linearizing the polar face of the receptor-binding region, which preserves peptide function without maintaining any primary sequence homology with the apoE receptor-binding region itself. Overall, 13 peptides were screened using in vitro assays of neuroinflammation and neuroprotection from excitotoxicity. […] The resulting smaller, 5-amino acid peptide increases the translational and therapeutic potential by reducing production cost, improving pharmacokinetics, and increasing CNS bioavailability. A comparison of the neuroprotective activity of CN-105 with VR-53, another pentapeptide from this library, as measured by LPS-induced inflammation from TNFα is shown in FIG. 1.

mixed glial culture = assay: LPS-induced TNFα release from mixed glia cells in vitro; assay type: cell-based
From the text: FIG. 1 is a graph showing the LPS-induced TNFα release from mixed glia cells in vitro from treatments with the CN-105 peptide and a comparison pentapeptide, VR-53.
as §1

[1] = Pharmacokinetic evaluation of radiolabeled CN-105 in uninjured male CD-1 mice; assay type: in vivo; conditions: single intravenous bolus 1.98 mg/kg
Method: FIG. 2, panel A is a graph showing the concentration of CN-105 in uninjured, male CD-1 mice after a single intravenous injection bolus dose of 1.98 mg/kg. FIG. 2, panel B is a graph showing the CN-105 retention in the brain and the spinal cord, calculated by dividing the concentration at 24 hours (C24) by the peak concentration (Cmax), 24 hours after a single intravenous injection bolus dose of 1.98 mg/kg. FIG. 2, panel C is a graph showing the total CN-105 exposure in the brain and the spinal cord, calculated using the area under the curve (AUC), for 48 hours after a single intravenous injection bolus dose of 1.98 mg/kg.
In collaboration with XenoBiotic Laboratories, Inc., we conducted a pharmacokinetic evaluation of radiolabled CN-105 in uninjured, male CD-1 mice. After a single intravenous bolus dose of CN-105 (1.98 mg/kg), peak concentration of CN-105 in the spinal cord occurred 30 minutes post injection (FIG. 2, panel A).
However, tissue retention of CN-105 at 24 hours (FIG. 2, panel B) and total exposure (FIG. 2, panel C) to CN-105 over 48 hours post injection was greatest in the spinal cord. Tissue retention at 24 hours post injection was quantified by dividing the CN-105 concentration at 24 hours (C24) by the peak CN-105 concentration (Cmax) and multiplying by 100.
The total exposure to CN-105 was calculated using the area under the curve (AUC) from the time of injection to 48 hours post injection (AUC0-48) and is expressed in nanogram equivalents*hour per gram. […] Increased CN-105 access to the spinal cord is consistent with greater passive permeability in the intact spinal cord (Winkler et al., 2012).

[2] = test system: moderate, contusive SCI in adult, female C57BL/6J mice; assay: Moderate, contusive SCI at T9: Basso Mouse Scale and von Frey hair test; assay type: in vivo
Method: FIG. 3 are graphs showing the locomotor performance recovery (via Basso Mouse Scale) in adult, female C57BL/6J mice after a moderate, incomplete SCI at the 9th thoracic vertebrae. The mice were subsequently treated with either 2.0 mg/kg CN-105 or a control vehicle intravenously 30 minutes post-injury, and then intraperitoneally (IP) at 3 hours, 6 hours, and then every 24 hours post-injury for three days. FIG. 3, panel A is a graph showing the number of consistent, weight-supported hindlimb steps at 21-days post-injury; and FIG. 3, panel B is a graph showing the number of animals capable of performing coordinated locomotion at 21-days post-injury.
To determine whether CN-105 can improve sensorimotor outcomes following a moderate, incomplete SCI, we conducted experiments in adult, female C57BL/6J mice. Here, we delivered CN-105 (2.0 mg/kg) or Vehicle at 30 minutes (intravenous, IV), at 3 hours and 6 hours (intraperitoneal, IP), then every 24 hours (IP) for three days following a moderate, contusive SCI at the level of the 9th thoracic vertebrae (T9). We tracked locomotor recovery using the Basso Mouse Scale (BMS) (Basso et al., 2006) and assessed for neuropathic pain or allodynia using the von Frey hair test.

severe, contusive SCI = assay: Severe, contusive SCI: GFAP staining at injury epicenter; assay type: in vivo, mouse; conditions: 0.05 mg/kg before and after SCI; 14 days after severe SCI
Method: FIG. 4 is a series of microscopy images showing the spinal cord sections at the injury epicenter stained for glial fibrillary acidic protein (GFAP) in a mouse after a severe SCI.
In a separate experiment, we delivered CN-105 (0.05 mg/kg) before and after SCI. To determine the effect of CN-105 treatment on neuropathology 14 days after severe SCI, we stained spinal cord sections at the injury epicenter for glial fibrillary acidic protein (GFAP; FIG. 4), which labels astrocytes, including those that form the glial scar around the injury. In this approach, spared tissue can be differentiated from the lesion core by the presence (spared tissue) or absence (lesion core) of GFAP staining (Duncan et al., 2018).

[3] = test system: spinal cord transection in female Sprague-Dawley rats; assay: Spinal cord transection T9/T10: acute cystometry and body weight; assay type: in vivo
Method: FIG. 5, panel A is a graph showing the number of non-voiding bladder contractions during acute cystometry in urethane-anesthetized, female Sprague-Dawley rats that received spinal cord transection between the 9th and 10th thoracic vertebrae, followed by CN-105 (2 mg/kg; sci_cn105) or 0.9% saline (sci_saline) treatments at 30 minutes and 3 hours post injury by IV injection, and then every 24 hours by IP for 7 days.
FIG. 5, panel B is a graph showing the bladder capacity measured from a single-fill cystometric trial in urethane-anesthetized, female Sprague-Dawley rats that received spinal cord transection between the 9th and 10th thoracic vertebrae. Three baseline measurements were taken, and then three measurements were taken after administration of CN-105 (2 mg/kg; cn105).
We conducted terminal acute experiments in urethane-anesthetized, female Sprague-Dawley rats to quantify the chronic and acute effects of CN-105 on urodynamic function. Rats (n=6) received spinal cord transection (TX) at T9/T10 followed by CN-105 (2.0 mg/kg) or 0.9% saline treatment at 30 min and 3 hours (IV), then every 24 hours (IP) for 7 days post-injury. Collection of body weight and void volumes occurred 2-3 times daily during manual bladder expression throughout the duration of the study. For acute cystometry experiments, we placed a catheter into the bladder dome to measure pressure and an electromyography paddle on the EUS to measure muscle activity. During a single-fill cystometric trial, we infused the bladder with saline at a constant rate (54-84 ml/hr) until a distension-evoked bladder contraction voided urine or until overflow incontinence occurred. Following 3 baseline cystometric trials, we performed 3 trials after administration of CN-105.

acquired brain injury = conditions: in vivo; cited from earlier work
[4] = biological target: α7 nicotinic acetylcholine receptors (Homo sapiens, UniProt P36544); conditions: cited from earlier work
α7 nicotinic acetylcholine receptors, sequence (P36544 23-502): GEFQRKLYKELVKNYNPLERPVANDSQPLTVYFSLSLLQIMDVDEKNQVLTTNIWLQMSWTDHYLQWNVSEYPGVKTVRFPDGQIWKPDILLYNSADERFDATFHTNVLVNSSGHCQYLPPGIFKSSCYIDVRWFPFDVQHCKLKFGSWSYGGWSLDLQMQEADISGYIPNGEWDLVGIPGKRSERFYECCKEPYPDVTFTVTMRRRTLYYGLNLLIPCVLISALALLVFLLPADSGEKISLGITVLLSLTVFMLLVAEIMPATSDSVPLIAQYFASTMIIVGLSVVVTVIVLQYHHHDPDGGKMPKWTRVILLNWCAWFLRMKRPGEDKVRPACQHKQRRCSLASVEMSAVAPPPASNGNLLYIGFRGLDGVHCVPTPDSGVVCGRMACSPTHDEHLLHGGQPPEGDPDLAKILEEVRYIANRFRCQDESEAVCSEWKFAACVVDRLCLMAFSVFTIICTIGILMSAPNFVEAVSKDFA

[5] = SCI rats, 2.0 mg/kg chronic treatment, cystometry

Ac-RSKRR-NH2 [RR-S-2]
Neuroprotection (reduction in neuronal LDH release) (mixed neuronal culture): 0.08%

Ac-RSKKL-NH2 [RL-S-3]
Neuroprotection (reduction in neuronal LDH release) (mixed neuronal culture): −20.80%

Ac-RHKKL-NH2 [RL-S-1]
Neuroprotection (reduction in neuronal LDH release) (mixed neuronal culture): −2.85%

Ac-ASHLRKLRKRLL-NH2 [AL-10-1]
Neuroprotection (reduction in neuronal LDH release) (mixed neuronal culture): −6.21%

Ac-RARRL-NH2 [RL-S-2]
Neuroprotection (reduction in neuronal LDH release) (mixed neuronal culture): −5.23%

Ac-VSRRR-NH2 [CN-105]
Neuroprotection (reduction in neuronal LDH release) (mixed neuronal culture): 19.14%
Suppression of LPS-induced inflammation (TNFα) (mixed glial culture): suppress LPS-induced inflammation
Total exposure (AUC0-48), spinal cord vs brain ([1]; 0-48 hours): spinal cord had greater total exposure to CN-105 than the brain
Tissue retention at 24 hours (C24/Cmax x 100), spinal cord vs brain ([1]; 24 hours post injection): spinal cord retained a higher percentage of CN-105 than the brain
Time of peak concentration in the spinal cord ([1]; spinal cord): 30 min
Sensory function / allodynia (von Frey hair test) ([2]; 2.0 mg/kg): trend toward improved sensory function
Animals capable of consistently taking weight-supported steps (BMS) ([2]; 2.0 mg/kg IV 30 min, IP 3 h, 6 h, then every 24 h for three days, 21 days after injury, p<0.05): significantly more animals
Animals performing coordinated locomotion (BMS) ([2]; 2.0 mg/kg, 21 days after injury, p<0.05): significantly more animals
Lesion size and tissue damage (GFAP staining) (severe, contusive SCI): appeared to reduce the lesion size and tissue damage
Post-injury weight loss ([3]; 2.0 mg/kg IV 30 min and 3 h, then IP every 24 h for 7 days): prevented post-injury weight loss
Bladder capacity (BC) [3, 5]: 11.83 ± 2.00 mL
Non-voiding contractions (NVCs) [3, 5]: 8.0±2.48
Voiding efficiency (VE) [3, 5]: 3.31±1.83%
Bladder capacity after acute dosing ([3]; acute dosing 2 mg/kg in chronically treated rats, p<0.05): may decrease bladder capacities
Neurogenic detrusor overactivity (NDO), post-hoc analysis ([3]; extended treatment, p<0.05): may decrease NDO
Brain exposure relative to previous peptides (acquired brain injury): up to five times higher than previous peptides
Histological and behavioral outcomes following acquired brain injury (acquired brain injury): improves both histological and behavioral outcomes
Binding to α7 nicotinic acetylcholine receptors [4]: binds

Ac-VSKKR-NH2 [VR-54]
Neuroprotection (reduction in neuronal LDH release) (mixed neuronal culture): −15.91%

Ac-VARRL-NH2 [VL-S-3]
Neuroprotection (reduction in neuronal LDH release) (mixed neuronal culture): 11.50%

Ac-RHKRR-NH2 [RR-S-1]
Neuroprotection (reduction in neuronal LDH release) (mixed neuronal culture): 7.5%

Ac-VSKRR-NH2 [VR-53]
Neuroprotection (reduction in neuronal LDH release) (mixed neuronal culture): 7.03%

Ac-VARKL-NH2 [VL-S-1]
Neuroprotection (reduction in neuronal LDH release) (mixed neuronal culture): 24.48%

Ac-VSRKR-NH2 [VR-52]
Neuroprotection (reduction in neuronal LDH release) (mixed neuronal culture): 12.63%
